Among the test systems are Antipeptide; Heat shock 70; PR_3 family class 1; PR_2 family; Xyloglucan.
Common to all, as to experiment: qRT-PCR expression of induced resistance gene in pine tree callus
Holding throughout (type): cell-based
Holding throughout (conditions): 200 µg/mℓ, 24 hours

The next test has as its system PR_9 family. In a few lines:
(§1)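 Pine callus (100 mg) in LM liquid medium treated with candidate inducers at 200 µg/mℓ final, applied to the surface or sprayed, shaken 50 rpm at 25 °C in the dark for 24 h (acibenzolar-S-methyl also 1, 7 or 14 days). Gene expression by qRT-PCR on callus RNA, with elongation factor_1 alpha as reference.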

For a further test, the system named is PR_10 family. In a few lines: as §1
The test system of another test is PR_3 family class 4. In a few lines:
as §1

The next test deals with Metallothionein. In a few lines: as §1
The subject of the next test is PR_1b family. In a few lines:
as §1

A further test concerns PR_5 family. In a few lines: as §1
The test system of another test is Extensin. A digest of the protocol:
as §1

The subject of a further test is Hydroxyproline. In a few lines: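 Pine callus (100 mg) in LM liquid medium was treated with candidate inducers at 200 µg/mℓ final and shaken at 50 rpm, 25 °C, dark, for 24 h. RNA was extracted, converted to cDNA and analysed by qRT-PCR, with elongation factor_1 alpha as reference gene.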
The next test deals with PR_4 family. A digest of the protocol: as §1

SMILES strings stand for the structures.

On to `CC/C=C\CC1C(=O)CCC1CC(=O)OC` (centres unmarked) [MeJA, Methyl jasmonate], for which, in the test on PR_9 family, the “Expression of induced resistance gene, PR_9 family” value was 0.47. Moreover, the “Expression of induced resistance gene, Antipeptide” value with Antipeptide was found to be 0.43. Moreover, in the test with PR_10 family, the “Expression of induced resistance gene, PR_10 family” value was 1.34. For the same compound, the “Expression of induced resistance gene, Heat shock 70” value in the test on Heat shock 70 came to 0.69. Besides, the “Expression of induced resistance gene, PR_3 family class 4” value in the test with PR_3 family class 4 turned out to be 0.79. Moreover, the “Expression of induced resistance gene, PR_3 family class 1” value in the test with PR_3 family class 1 is reported as 0.54. For the same compound, the “Expression of induced resistance gene, PR_2 family” value with PR_2 family amounted to 0.47. Further, the “Expression of induced resistance gene, Metallothionein” value in the test on Metallothionein amounted to 0.21. Besides, the “Expression of induced resistance gene, PR_1b family” value with PR_1b family amounted to 0.5. Besides, the “Expression of induced resistance gene, Xyloglucan” value with Xyloglucan was found to be 0.44. Further, the “Expression of induced resistance gene, PR_5 family” value in the test on PR_5 family amounted to 0.95. Moreover, in the test with Extensin, the “Expression of induced resistance gene, Extensin” value is 0.93. Moreover, the “Expression of induced resistance gene, Hydroxyproline” value in the test on Hydroxyproline came to 0.53. In addition, in the test with PR_4 family, the “Expression of induced resistance gene, PR_4 family” value is on record as 5.86.

The values are drawn from EP3685668B1, “COMPOSITION COMPRISING ACIBENZOLAR-S-METHYL AS EFFECTIVE INGREDIENT FOR CONTROLLING BURSAPHELENCHUS XYLOPHILUS DISEASE AND METHOD FOR CONTROLLING BURSAPHELENCHUS XYLOPHILUS USING SAME” (Industry Foundation of Chonnam National University, priority 2017, dated 2019).
